Results on 25 compounds are retold here after US8309546B2, “Morpholinopurine derivatives” (Daiichi Sankyo Company, Limited, priority 2008, dated 2012).

The IC50 is the concentration that inhibits the measured activity by half.

Molecules are shown by their SMILES.

Experiment [1] deals with human endometrial cancer cell strain AN3CA. Put plainly: Cell growth inhibition test (MTT), AN3CA. Format: cell-based. The following applies: AN3-CA, 72 h, 3 days culture, read-out: concentration exhibiting anti-cell effect (GI50). The gist of the method:
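Seed 5000/1000/5000 cells per well (AN3CA/IGROV1/HT29); add compound next day; culture 3 d, 37° C, 5% CO2; MTT 4 h, DMSO, A540. T/C % vs pre-dose baseline; GI50 from bracketing concentrations.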

For experiment [2], the target named is T1, human mTOR (His-tagged mTOR (1362C)) (Homo sapiens, UniProt P42345).
T1 construct: the 1362 to 2549 amino acid portion on the C terminus side of human mTOR; His tag (N); made in house
Put plainly: mTOR kinase activity inhibition assay. Format: biochemical. The following applies: HTRF, read-out: IC50 against mTOR. The gist of the method:
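Crude His-tagged mTOR (aa 1362–2549) from stable HEK293 cells, with 8 μg/ml biotinylated peptide in 50 mM HEPES pH 7.5, 20 mM MnCl2; compound diluted in 20 μM ATP solution, reaction 3 h at room temperature. Phospho-peptide detected by HTRF (anti-phospho-S6K Thr389 cryptate/streptavidin-XL665, overnight at 4°C), 665/620 nm ratio. IC50 derived from curve fit of % inhibition.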
For orientation: Time-resolved FRET reads energy transfer from a long-lived donor to a nearby acceptor.

T1 sequence (P42345 1362-2549): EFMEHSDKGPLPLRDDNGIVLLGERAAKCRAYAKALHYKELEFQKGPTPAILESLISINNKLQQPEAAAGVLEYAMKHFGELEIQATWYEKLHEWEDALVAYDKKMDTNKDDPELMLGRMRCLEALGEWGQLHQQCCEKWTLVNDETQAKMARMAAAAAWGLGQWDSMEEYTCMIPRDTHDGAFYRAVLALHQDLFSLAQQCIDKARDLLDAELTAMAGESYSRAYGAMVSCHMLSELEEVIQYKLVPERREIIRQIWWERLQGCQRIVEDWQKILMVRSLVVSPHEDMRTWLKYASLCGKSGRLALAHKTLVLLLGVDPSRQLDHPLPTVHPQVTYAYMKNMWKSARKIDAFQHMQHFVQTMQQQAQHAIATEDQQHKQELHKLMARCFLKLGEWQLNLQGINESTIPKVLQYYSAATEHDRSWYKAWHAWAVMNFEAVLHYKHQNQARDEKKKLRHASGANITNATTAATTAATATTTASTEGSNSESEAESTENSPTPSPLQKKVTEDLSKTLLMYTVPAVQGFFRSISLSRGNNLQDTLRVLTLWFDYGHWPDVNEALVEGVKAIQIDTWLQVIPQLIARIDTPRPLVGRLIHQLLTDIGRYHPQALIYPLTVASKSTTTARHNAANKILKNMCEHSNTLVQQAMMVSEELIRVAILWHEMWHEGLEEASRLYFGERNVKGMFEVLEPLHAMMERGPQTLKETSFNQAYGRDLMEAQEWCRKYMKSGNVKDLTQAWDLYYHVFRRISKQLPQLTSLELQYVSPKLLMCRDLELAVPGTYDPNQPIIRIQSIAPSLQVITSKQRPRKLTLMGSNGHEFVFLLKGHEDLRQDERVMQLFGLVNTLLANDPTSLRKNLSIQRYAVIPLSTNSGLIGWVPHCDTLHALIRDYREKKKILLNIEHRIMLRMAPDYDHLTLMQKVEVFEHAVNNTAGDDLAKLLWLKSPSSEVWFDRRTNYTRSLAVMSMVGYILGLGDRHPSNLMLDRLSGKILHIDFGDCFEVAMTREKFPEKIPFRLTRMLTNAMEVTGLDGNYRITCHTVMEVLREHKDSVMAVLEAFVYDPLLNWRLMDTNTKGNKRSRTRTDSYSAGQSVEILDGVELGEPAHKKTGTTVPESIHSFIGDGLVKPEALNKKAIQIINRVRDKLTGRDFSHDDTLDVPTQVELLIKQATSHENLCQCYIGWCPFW

Take `CC(C)Cn1c(N2CCN(S(C)(=O)=O)CC2)nc2c(N3CCOCC3)nc(-c3cnc(N)nc3)nc21` [Example 1, 5-{9-Isobutyl-8-[4-(methylsulfonyl)piperazin-1-yl]-6-morpholin-4-yl-9H-purin-2-yl}pyrimidin-2-amine]: the GI50 in experiment [1] is ≤ 5000 nM. Moreover, the IC50 in experiment [2] lay in the range of 10 to 30 nM.

In the case of `CC(=O)N1CCN(c2nc3c(N4CCOCC4)nc(-c4cnc(N)nc4)nc3n2CC(C)C)CC1` [Example 2, 5-[8-(4-Acetylpiperazin-1-yl)-9-isobutyl-6-morpholin-4-yl-9H-purin-2-yl]pyrimidin-2-amine], the GI50 in experiment [1] was ≤ 5000 nM. Also, the half-maximal inhibitory concentration (IC50) in experiment [2] was in the range of 10 to 30 nM.

On to `CS(=O)(=O)N1CCN(c2nc3c(N4CCOCC4)nc(-c4cnc(N)nc4)nc3n2CC2CC2)CC1` [Example 3, 5-{9-(Cyclopropylmethyl)-8-[4-(methylsulfonyl)piperazin-1-yl]-6-morpholin-4-yl-9H-purin-2-yl}pyrimidin-2-amine], for which the GI50 in experiment [1] is ≤ 5000 nM. Also, the IC50 in experiment [2] lay within 10 to 30 nM.

As to `Cc1nc(N)ncc1-c1nc(N2CCOCC2)c2nc(N3CCN(S(C)(=O)=O)CC3)n(CC3CC3)c2n1` [Example 6, 5-{9-(Cyclopropylmethyl)-8-[4-(methylsulfonyl)piperazin-1-yl]-6-morpholin-4-yl-9H-purin-2-yl}-4-methylpyrimidin-2-amine], the GI50 in experiment [1] is ≤ 5000 nM. For the same compound, the IC50 in experiment [2] lay within 100 to 500 nM.

As to `CS(=O)(=O)N1CCN(c2nc3c(N4CCOCC4)nc(-c4cnc(N)nc4)nc3n2CC(F)(F)F)CC1` [Example 8, 5-{8-[4-(Methylsulfonyl)piperazin-1-yl]-6-morpholin-4-yl-9-(2,2,2-trifluoroethyl)-9H-purin-2-yl}pyrimidin-2-amine], the GI50 in experiment [1] is ≤ 5000 nM. In addition, the IC50 in experiment [2] was < 10 nM.

For the compound `CC(=O)N1CCN(c2nc3c(N4CCOCC4)nc(-c4cnc(N)nc4)nc3n2CC2CC2)CC1` [Example 10, 5-[8-(4-Acetylpiperazin-1-yl)-9-(cyclopropylmethyl)-6-morpholin-4-yl-9H-purin-2-yl]pyrimidin-2-amine], the GI50 in experiment [1] is ≤ 5000 nM. The IC50 in experiment [2] was 10 to 30 nM.

`CNc1ncc(-c2nc(N3CCOCC3)c3nc(N4CCN(S(C)(=O)=O)CC4)n(CC(F)(F)F)c3n2)cn1` [Example 11, N-Methyl-5-{8-[4-(methylsulfonyl)piperazin-1-yl]-6-morpholin-4-yl-9-(2,2,2-trifluoroethyl)-9H-purin-2-yl}pyrimidin-2-amine]: the GI50 in experiment [1] is ≤ 5000 nM. The IC50 in experiment [2] is < 10 nM.

On to `C[C@@H]1CN(c2nc3c(N4CCOCC4)nc(-c4cnc(N)nc4)nc3n2CC(F)(F)F)C[C@H](C)N1` [Example 14, 5-[8-(cis-3,5-Dimethylpiperazin-1-yl)-6-morpholin-4-yl-9-(2,2,2-trifluoroethyl)-9H-purin-2-yl]pyrimidin-2-amine], for which the GI50 in experiment [1] was ≤ 5000 nM. Also, the IC50 in experiment [2] fell in the range of 10 to 30 nM.

For `CC(C)Cn1c(N2CCN(S(C)(=O)=O)[C@@H](C)C2)nc2c(N3CCOCC3)nc(-c3cnc(N)nc3)nc21` [Example 53, 5-{9-Isobutyl-8-[(3S)-3-methyl-4-(methylsulfonyl)piperazin-1-yl]-6-morpholin-4-yl-9H-purin-2-yl}pyrimidin-2-amine], the GI50 in experiment [1] was ≤ 5000 nM. Besides, the IC50 in experiment [2] was in the range of 10 to 30 nM.

In the case of `CC(C)Cn1c(N2CCN(S(C)(=O)=O)[C@H](C)C2)nc2c(N3CCOCC3)nc(-c3cnc(N)nc3)nc21` [Example 54, 5-{9-Isobutyl-8-[(3R)-3-methyl-4-(methylsulfonyl)piperazin-1-yl]-6-morpholin-4-yl-9H-purin-2-yl}pyrimidin-2-amine], the GI50 in experiment [1] was ≤ 5000 nM. For the same compound, the concentration for half-maximal inhibition (IC50) in experiment [2] lay in the range of 30 to 100 nM.

`CC(C)Cn1c(N2CCN(C(=O)CN(C)C)CC2)nc2c(N3CCOCC3)nc(-c3cnc(N)nc3)nc21` [Example 55, 5-(8-{4-[(Dimethylamino)acetyl]piperazin-1-yl}-9-isobutyl-6-morpholin-4-yl-9H-purin-2-yl)pyrimidin-2-amine]: the GI50 in experiment [1] is ≤ 5000 nM. Further, the IC50 in experiment [2] is 30 to 100 nM.

On to `CS(=O)(=O)C1CCN(c2nc3c(N4CCOCC4)nc(-c4cnc(N)nc4)nc3n2CC(F)(F)F)CC1` [Example 57, 5-{8-[4-(Methylsulfonyl)piperidin-1-yl]-6-morpholin-4-yl-9-(2,2,2-trifluoroethyl)-9H-purin-2-yl}pyrimidin-2-amine], for which the GI50 in experiment [1] is ≤ 5000 nM. The IC50 in experiment [2] was < 10 nM.

Consider `CC(=O)N1CCN(c2nc3c(N4CCOCC4)nc(-c4cnc(N)nc4)nc3n2CC(F)(F)F)C[C@H]1C` [Example 60, 5-{8-[(3R)-4-Acetyl-3-methylpiperazin-1-yl]-6-morpholin-4-yl-9-(2,2,2-trifluoroethyl)-9H-purin-2-yl}pyrimidin-2-amine], for which the GI50 in experiment [1] was ≤ 5000 nM. Besides, the IC50 in experiment [2] is < 10 nM.

In the case of `C[C@@H]1CN(c2nc3c(N4CCOCC4)nc(-c4cnc(N)nc4)nc3n2CC(F)(F)F)CCN1S(C)(=O)=O` [Example 61, 5-{8-[(3R)-3-Methyl-4-(methylsulfonyl)piperazin-1-yl]-6-morpholin-4-yl-9-(2,2,2-trifluoroethyl)-9H-purin-2-yl}pyrimidin-2-amine], in experiment [1], the GI50 is ≤ 5000 nM. Further, in experiment [2], the IC50 lay within 10 to 30 nM.

`C[C@H]1CN(c2nc3c(N4CCOCC4)nc(-c4cnc(N)nc4)nc3n2CC(F)(F)F)CCN1S(C)(=O)=O` [Example 62, 5-{8-[(3S)-3-Methyl-4-(methylsulfonyl)piperazin-1-yl]-6-morpholin-4-yl-9-(2,2,2-trifluoroethyl)-9H-purin-2-yl}pyrimidin-2-amine]: the GI50 in experiment [1] was ≤ 5000 nM. Further, the half-maximal inhibitory concentration (IC50) in experiment [2] was < 10 nM.

Take `CC(=O)N1CCN(c2nc3c(N4CCOCC4)nc(-c4cnc(N)nc4)nc3n2CC(F)(F)F)C[C@@H]1C` [Example 63, 5-{8-[(3S)-4-Acetyl-3-methylpiperazin-1-yl]-6-morpholin-4-yl-9-(2,2,2-trifluoroethyl)-9H-purin-2-yl}pyrimidin-2-amine]: in experiment [1], the GI50 was ≤ 5000 nM. For the same compound, in experiment [2], the half-maximal inhibitory concentration (IC50) is < 10 nM.

As for `CS(=O)(=O)N1CCN(c2nc3c(N4CCOCC4)nc(-c4cnc(N)nc4)nc3n2CC(F)F)CC1` [Example 64, 5-{9-(2,2-Difluoro-ethyl)-8-[4-(methylsulfonyl)piperazin-1-yl]-6-morpholin-4-yl-9H-purin-2-yl}pyrimidin-2-amine], the GI50 in experiment [1] was ≤ 5000 nM. The IC50 in experiment [2] is < 10 nM.

Consider `CC(=O)C(=O)N1CCN(c2nc3c(N4CCOCC4)nc(-c4cnc(N)nc4)nc3n2CC(F)(F)F)CC1` [Example 65, 1-{4-[2-(2-Aminopyrimidin-5-yl)-6-morpholin-4-yl-9-(2,2,2-trifluoroethyl)-9H-purin-8-yl]piperazin-1-yl}-1-oxoacetone], for which, in experiment [1], the GI50 was ≤ 5000 nM. The IC50 in experiment [2] was < 10 nM.

Regarding `CN(C)C(=O)C(=O)N1CCN(c2nc3c(N4CCOCC4)nc(-c4cnc(N)nc4)nc3n2CC(F)(F)F)CC1` [Example 66, 2-{4-[2-(2-Aminopyrimidin-5-yl)-6-morpholin-4-yl-9-(2,2,2-trifluoroethyl)-9H-purin-8-yl]piperazin-1-yl}-N,N-dimethyl-2-oxoacetamide], the GI50 in experiment [1] is ≤ 5000 nM. In experiment [2], the IC50 was < 10 nM.

With `Nc1ncc(-c2nc(N3CCOCC3)c3nc(N4CCN(C(=O)CO)CC4)n(CC(F)(F)F)c3n2)cn1` [Example 67, 2-{4-[2-(2-Aminopyrimidin-5-yl)-6-morpholin-4-yl-9-(2,2,2-trifluoroethyl)-9H-purin-8-yl]piperazin-1-yl}-2-oxoethanol], in experiment [1], the GI50 is ≤ 5000 nM. Besides, the IC50 in experiment [2] is < 10 nM.

Turning to `C[C@H](O)C(=O)N1CCN(c2nc3c(N4CCOCC4)nc(-c4cnc(N)nc4)nc3n2CC(F)(F)F)CC1` [Example 68, (2S)-1-{4-[2-(2-Aminopyrimidin-5-yl)-6-morpholin-4-yl-9-(2,2,2-trifluoroethyl)-9H-purin-8-yl]piperazin-1-yl}-1-oxopropan-2-ol], in experiment [1], the GI50 was ≤ 5000 nM. For the same compound, the IC50 in experiment [2] was < 10 nM.

For the compound `C[C@H](O)CC(=O)N1CCN(c2nc3c(N4CCOCC4)nc(-c4cnc(N)nc4)nc3n2CC(F)(F)F)CC1` [Example 69, (2S)-4-{4-[2-(2-Aminopyrimidin-5-yl)-6-morpholin-4-yl-9-(2,2,2-trifluoroethyl)-9H-purin-8-yl]piperazin-1-yl}-4-oxobutan-2-ol], the GI50 in experiment [1] was ≤ 5000 nM. Also, in experiment [2], the IC50 was < 10 nM.

For the compound `C[C@@H](O)CC(=O)N1CCN(c2nc3c(N4CCOCC4)nc(-c4cnc(N)nc4)nc3n2CC(F)(F)F)CC1` [Example 70, (2R)-4-{4-[2-(2-Aminopyrimidin-5-yl)-6-morpholin-4-yl-9-(2,2,2-trifluoroethyl)-9H-purin-8-yl]piperazin-1-yl}-4-oxobutan-2-ol], the GI50 in experiment [1] was ≤ 5000 nM. For the same compound, the IC50 in experiment [2] is < 10 nM.

On to `Nc1ncc(-c2nc(N3CCOCC3)c3nc(N4CCN(C=O)CC4)n(CC(F)(F)F)c3n2)cn1` [Example 71, 4-[2-(2-Aminopyrimidin-5-yl)-6-morpholin-4-yl-9-(2,2,2-trifluoroethyl)-9H-purin-8-yl]piperazine-1-carboaldehyde], for which, in experiment [1], the GI50 is ≤ 5000 nM. In experiment [2], the IC50 was < 10 nM.

With `CC[C@H]1CN(c2nc3c(N4CCOCC4)nc(-c4cnc(N)nc4)nc3n2CC(F)(F)F)CCN1C(C)=O` [Example 75, 5-{8-[(3S)-4-Acetyl-3-ethylpiperazin-1-yl]-6-morpholin-4-yl-9-(2,2,2-trifluoroethyl)-9H-purin-2-yl}pyrimidin-2-amine], the GI50 in experiment [1] is ≤ 5000 nM. Besides, in experiment [2], the IC50 was < 10 nM.
